The source made the active and inactive calls. No rule for the calls is given here.
Tested on: L. donovani-infected THP-1 macrophages, intracellular amastigote imaging
Assay: antileishmanial activity in infected THP-1 macrophages – imaging, THP-1 host macrophages, host toxicity (AID 1159564)
[1] = measured here: THP-1 host cell toxicity
[2] = measured here: amastigotes per macrophage

SMILES | IC50 | IC50 [1] | IC50 [2]
COc1ccc2c(Cl)c(C(=O)N3CCC3)sc2c1Cl | > 50 µM (inactive) | > 50 µM | > 50 µM
NC(=O)c1ccccc1Nc1nc(NC2CCCCC2)nc2[nH]ccc12 | 13 µM | 10 µM | 13 µM
Cn1c(CN2CCN(c3ncc(C(F)(F)F)cc3Cl)CC2)nc2ccncc21 | > 50 µM (inactive) | 6.3 µM | 
Cc1ccc2ccc(C(Nc3ccccn3)c3cccnc3)c(O)c2n1 (stereo not drawn) | 13 µM | > 50 µM | 7.9 µM
Cc1nc(-c2ccc3c(c2)OCO3)sc1C(=O)NCc1ccc2c(c1)OCO2 | 0.25 µM | > 50 µM | 0.79 µM
COCCn1c(-c2ccc3c(c2)OCO3)cnc1NCc1ccccc1OC | 10 µM | 40 µM | 5 µM
O=C(Nc1ccc(-c2nc3ccccc3c(=O)[nH]2)cc1)c1cccs1 | > 50 µM (inactive) | > 50 µM | > 50 µM
O=C(NC1C(=O)N(c2ccccc2)C1c1cccnc1)c1ccc(Cl)s1 (stereo not drawn) | > 50 µM (inactive) | > 50 µM | 0.79 µM
c1ccc(Nc2nc3ccccc3[nH]2)nc1 | 7.9 µM | 25 µM | 7.9 µM
O=C(NC1CCN(C2Cc3ccc(NS(=O)(=O)c4cc(F)cc(F)c4)cc3C2)CC1)C1CC1 (stereo not drawn) | > 50 µM (inactive) | 13 µM | 13 µM
CCC(=O)Nc1ccc(C(=O)Nc2ccccc2-c2ccccc2)cc1 | 20 µM | 16 µM | 25 µM
Oc1cccnc1-c1n[nH]c(Cc2ccccc2)n1 | 3.2 µM | 16 µM | 2 µM
COc1ccc(C2CC(c3ccccc3Cl)=NN2C(=O)CNC(=O)C2CCC2)cc1 (stereo not drawn) | > 50 µM (inactive) | > 50 µM | > 50 µM
COc1ccc([N+](=O)[O-])cc1NC(=O)c1cc(Cl)ccc1O | 2 µM | 10 µM | 1.6 µM
O=C(CN(Cc1ccccn1)Cc1ccccn1)NCc1ccc2c(c1)OCO2 | 7.9 µM | > 79 µM | 6.3 µM
CC(C)C[C@H](NC(=O)c1csc(-c2cccs2)n1)C(=O)NC1(C#N)CC1 | > 50 µM (inactive) | > 50 µM | > 50 µM
Cc1ccc2c(c1)-c1onc(C(=O)N3CCCCC3c3cccnc3)c1CO2 (stereo not drawn) | > 50 µM (inactive) | 40 µM | 40 µM
CC(=O)Nc1cccc(Nc2ncnc3nc[nH]c23)c1 | > 50 µM (inactive) | 10 µM | 40 µM
Cc1cc(C#N)c([N+](=O)[O-])cc1Br | 40 µM | 25 µM | 32 µM
CC(C)(C)CC(=O)NCc1noc(COc2ccccc2)n1 | > 50 µM (inactive) | > 50 µM | > 50 µM
Cc1cc(Nc2ccc(C#N)c(Cl)c2C)n[nH]1 | > 50 µM (inactive) | 20 µM | > 50 µM
OCC1CCCCN1c1cc(-c2ccccn2)nc(Nc2ccccc2)n1 (stereo not drawn) | 1.3 µM | 20 µM | 1 µM
Cc1cccnc1CN1CCN(CCCOc2ccc(-c3ccc(C(N)=O)cc3)cc2)CC1 | 32 µM | 13 µM | 10 µM
Cc1c(Nc2cc(C3CC3)[nH]n2)ccc(C#N)c1Cl | 40 µM | 25 µM | 25 µM
Cn1ccnc1-c1nc(NCc2ccccc2Cl)cc(C2CC2)n1 | 0.63 µM | 7.9 µM | 0.2 µM
CN(C)S(=O)(=O)c1cccc(CSc2nnc(-c3ccc4c(c3)OCO4)o2)c1 | 2 µM | > 50 µM | 0.63 µM
COCCn1cnc2cc(NC(=O)C3CCCCC3)cc(C(=O)N3CCc4sccc4C3)c21 | > 50 µM (inactive) | > 50 µM | > 50 µM
NC(=O)c1cc(F)ccc1Nc1nc(NC2CCC(O)CC2)ncc1Br (stereo not drawn) | 0.79 µM | 0.4 µM | 0.63 µM

From PubChem BioAssay AID1159564 (GlaxoSmithKline (GSK), 2015)
